{"source": "paper PMC8776894", "about": "(Communications Biology, 2022)", "format_in_all_cases": "in vivo, mouse", "key": {"[1]": {"tested_on": "mice", "assay": "Coagulation function (PT, APTT, TT, FIB) in acute toxicity test", "settings": "VK 1.5-384 mg/kg single i.p., after 14th day", "experimental": "Platelet aggregation function test. Venous blood from (normal healthy rabbits) was collected in 3 mL sodium citrate anticoagulation vacuum plastic tubes. The collected venous blood was centrifuged for 10 min at 100 × g at 4℃ to obtain the upper plasma, and the platelet rich plasma (PRP) was prepared, centrifuged again for 10 min at 2000 × g at 4°C to draw the upper plasma, the platelet poor plasma (PPP) was prepared and […] to a platelet concentration of 3×10^8 cells/ml was counted. The adjusted PRP was placed into a four-channel platelet aggregation instrument (Agg RAM, Helena Laboratories, USA) to determine the 5 min maximum platelet aggregation rate with adenosine diphosphate (ADP), arachidonic acid (AA), thrombin, collagen (COL) , and platelet-activating factor (PAF) or saline as inducers (at a final […]\nAcute toxicity test. Systemic acute toxicity test by peritoneal injection was performed according to the guideline provided by Center for Drug Evaluation and Research. In addition to the normal group, male mice were randomly divided into the treated groups received a single dose of 1.5 mg/kg, 6 mg/kg, 24 mg/kg, 96 mg/kg and 384 body weight of VK. […]\nThe obtained plasma was analyzed using an automatic coagulation apparatus (CA1500). […]"}, "[2]": {"tested_on": "MCAO/R mice", "assay": "Transmission electron microscopy of BBB", "experimental": "Frontal cortex samples were isolated from mice with stroke and fixed in 2% glutaraldehyde and 4% paraformaldehyde in 0.1 M sodium cacodylate (pH 7.4), treated with 10% gelatin solution in sodium cacodylate buffer, and incubated with 2% osmium tetroxide. Sections were cut using a Leica EM TP ultramicrotome (Leica Microsystems) at 40 nm and placed within grids stained with a 1:1 mix of 3% uranyl acetate and 50% acetone for 30–60 s. Grids were imaged with a JEM 1400 transmission electron microscope (JEOL) at ×1200 for low magnification and ×12,000 for high magnification (unless otherwise noted) using Gatan Microscopy Suite software (Gatan)."}, "[3]": {"tested_on": "PI3K (p85α), AKT, IκBα, NF-κB, p38, ERK1/2 phosphorylation", "assay": "Quantitative immunoblotting of brain", "settings": "MCAO/R mice, Western blot", "experimental": "Quantitative immunoblotting was accomplished as previously described. Anti-β-actin (Themo) was used as an internal loading control. Imaging of blots was performed using an AzureC300 with secondary antibodies(Themo). Analysis was carried out in Image Lab and signal intensities were normalized to loading controls, where applicable. The antibodies and their concentrations are listed as follows (antibody, dilution, catalog number, company, country): AKT (1:1000,4691, CST, USA), phospho-AKT (1:1000, 4046S, CST), phospho-p44/42 MAPK (Erk1/2) (Thr202/Tyr204) (1:1000, 4370S, CST), p44/42 MAPK (Erk1/2) (1:1000,4695S, CST), p38 MAPK (1:1000,8690S, CST), phospho-p38 MAPK (Thr180/Tyr182) (1:1000, 4511S, CST), NF-κB p65 (1:1000,8242S, CST), phospho-NF-κB p65 (Ser536) (1:1000,3033S, CST), IκBα (L35A5) Mouse mAb (1:1000, 4814S, CST), phospho-IκBα (Ser32) (1:1000,2859S, CST), PI3 kinase p85α (1:1000,11889S, CST), and phospho-PI3 kinase p85 (Tyr458)/p55 (Tyr199) (1:1000, 17366S, CST)."}, "[4]": {"tested_on": "IL-1β, TNF-α, IL-6, IL-8, IL-10 in ischemic cortex", "assay": "Cytokine ELISA in ischemic cortex", "settings": "MCAO/R mice, 48 h", "experimental": "Mice were decapitated under anesthesia at 48 h after MCAO/R. The IL-1β (Cat# 88-5019-88), TNF-α (Cat# 88-7324-22), IL-6 (Cat# 88-7064-88), and IL-8 (Cat# 88-8086-22) were purchased from Thermo Fisher Scientific. The levels of these proteins were measured by enzyme-linked immune sorbent assays (ELISA) kits, according to the manufacturer’s recommendations."}}, "data": [{"substance": "Gly-Arg-Pro-Hyp-Gly-Phe-Ser-Pro-Phe-Arg-Ile-Asp [VK, Vespakinin-M]", "values": [{"measurement": "four coagulation (PT, APTT, TT, FIB)", "setting": "[1]", "result": "No obvious change"}, {"measurement": "BBB integrity, TEM", "setting": "[2]", "result": "could maintain BBB integrity"}, {"measurement": "PI3K (p85α) and AKT phosphorylation", "setting": "[3]", "result": "stimulated MCAO-mediated PI3K (p85α) and AKT phosphorylation"}, {"measurement": "phosphorylation levels of p38 and ERK1/2 vs vehicle", "setting": "[3]", "result": "partially downregulated"}, {"measurement": "IκB and NF-κB phosphorylation levels", "setting": "[3]; VK 300 µg/kg", "result": "reduced IκB and NF-κB levels"}, {"measurement": "IL-10 level in ischemic cortex vs vehicle", "setting": "[4]", "result": "increase in IL-10 levels"}, {"measurement": "IL-1β, TNF-α, IL-6 and IL-8 levels in cortex of the ischemic hemisphere vs vehicle", "setting": "[4]; VK 150 and 300 µg/kg", "result": "decreased IL-1β, TNF-α, IL-6, and IL-8 levels"}]}]}
